Test results taken from patent US6680300B2 (Board of Regents, The University of Texas System, priority 1998, dated 2004).
In brackets after ≈: the same amount, converted by molar mass. Several values for one entry are separate records, joined by “and”; a condition that tells them apart may be missing. Identical values can stand only once.

Legend:
several cell lines = experiment: In vitro potency comparison in several cell lines; assay type: cell-based; conditions: in vitro cytotoxicity
[1] = test system: MCF-7/dox cell line which overexpresses MDR1 gene; experiment: MTT cytotoxicity assay, MCF-7/dox cells; assay type: cell-based, human; conditions: for RI (resistance index) MCF-7/dox vs MCF-7: MCF-7/dox relative to MCF-7; for ID50 MCF-7/dox: MTT, 72 hours incubation, MCF-7/dox cells
Description: [Worded in the source for another cell line; this cell line is reported under the same test.] (§1) Compounds synthesized using the methods described above were tested using a standard MTT assay (Green et al., 1984) against human carcinoma sensitive (KB) and multi-drug-resistant (KBV1) cells and MCF-7 and MCF-7/VP-16 resistant cells characterized as having the MRP (multi-drug resistant associated protein) phenotype. The use of an MTT assay using these cells is recognized as an accepted assay for anti-tumor activity by those in the field.
(§2) In vitro drug cytotoxicities against human breast carcinoma wild-type MCF-7 and MRP-resistant MCF-7/VP-16 cells were assessed by using the MTT reduction assay, as previously reported (Green et al., 1984). The MTT dye was obtained from Sigma Chemical Co. (St. Louis, Mo.). Cells were plated in 96-well microassay culture plates (10^4 cells/well) and grown overnight at 37° C. in a 5% CO2 incubator. Drugs were then added to the wells to achieve a final drug concentration ranging from 0.1 to 50 μg/mL. Four wells were used for each concentration. Control wells were prepared by adding appropriate volumes of calcium- and magnesium-free PBS (pH 7.4). Wells containing culture medium without cells were used as blanks. The plates were incubated at 37° C. in a 5% CO2 incubator for 72 hours. Upon completion of the incubation, 20 μL of stock MTT dye solution (5 mg/mL) was added to each well. After a 4-hour incubation, 100 μL of buffer containing 50% N,N-dimethylformamide and 20% SDS was added to solubilize the MTT formazan. Complete solubilization was achieved by placing the plate in a mechanical shaker for 30 minutes at room temperature. The optical density of each well was then measured with a microplate spectrophotometer at a wavelength of 570 nm. The percent cell viability was calculated by the following equation:
(§3) % cell viability=(OD treated wells/OD control wells)×100
(§4) where OD is the mean optical density from four determinations. The percent cell viability values were plotted against the drug concentrations used, and the ID50 was calculated from the curve. Cytotoxicity experiments were repeated at least three times.
(§5) Drug resistance, both de novo and acquired, by human tumors is currently a major factor limiting the effectiveness of chemotherapy. […] Using this system, the inventors evaluate a drug's cytotoxic potential against human tumors and at the same time identify compounds that might have unique activity against MDR tumors (Priebe et al., 1993).

[2] = test system: MRP-resistant MCF-7/VP-16 cells; experiment: MTT cytotoxicity assay, MRP-resistant MCF-7/VP-16 cells; assay type: cell-based, human
Description: as §1
(§6) In vitro drug cytotoxicities against human breast carcinoma wild-type MCF-7 and MRP-resistant MCF-7/VP-16 cells were assessed by using the MTT reduction assay, as previously reported (Green et al., 1984). The MTT dye was obtained from Sigma Chemical Co. (St. Louis, Mo.). Cells were plated in 96-well microassay culture plates (10^4 cells/well) and grown overnight at 37° C. in a 5% CO2 incubator. Drugs were then added to the wells to achieve a final drug concentration ranging from 0.1 to 50 μg/mL. Four wells were used for each concentration. […] The optical density of each well was then measured with a microplate spectrophotometer at a wavelength of 570 nm. The percent cell viability was calculated by the following equation: […]
(§7) where OD is the mean optical density from four determinations. The percent cell viability values were plotted against the drug concentrations used, and the ID50 was calculated from the curve. […]

[3] = test system: human carcinoma sensitive (KB) cells; experiment: MTT cytotoxicity assay, sensitive KB cells; assay type: cell-based; conditions: 72 hours incubation
Description: as §1, §2, §3
where OD is the mean optical density from four determinations. The percent cell viability values were plotted against the drug concentrations used, and the ID50 was calculated from the curve. Cytotoxicity experiments were repeated at least three times. […]

[4] = test system: human breast carcinoma wild-type MCF-7 cells; experiment: MTT cytotoxicity assay, wild-type MCF-7 cells; assay type: cell-based; conditions: 72 hours incubation
Description: as §1, §6, §7

[5] = test system: multi-drug-resistant (KBV1) carcinoma cells overexpressing MDR1 (P-gp); experiment: MTT cytotoxicity assay, multi-drug-resistant KBV1 cells; assay type: cell-based, human; conditions: for RI (resistance index) KBV1 vs KB: KBV1 relative to KB; for ID50 KBV1: MTT, 72 hours incubation, KBV1 cells
Description: as §1, §2, §3, §4, §5

SMILES	potency relative to daunorubicin analog WP809 (several cell lines)	RI (resistance index) MCF-7/dox vs MCF-7 [1]	ID50 MCF-7/dox [1]	RI (resistance index) MCF-7/VP-16 vs MCF-7 ([2]; MCF-7/VP-16 relative to MCF-7)	ID50 MCF-7/VP-16 ([2]; MTT, 72 hours incubation, MCF-7/VP-16 cells)	ID50 KB [3]	ID50 MCF-7 [4]	RI (resistance index) KBV1 vs KB [5]	ID50 KBV1 [5]
COc1cccc2c1C(=O)c1c(O)c3c(c(O)c1C2=O)C[C@@](O)(C(=O)CO)C[C@@H]3O[C@H]1C[C@H]2[C@H](OC3CCCN32)[C@H](C)O1 (stereo partly shown) [WP836]	several fold	1.56	0.67 ± 0.15 ng/mL (≈ 1.12 nM)	1	0.43 ± 0.06 ng/mL (≈ 0.722 nM)	0.65 ± 0.14 ng/mL and 0.5 ± 0.06 ng/mL	0.43 ± 0.06 ng/mL (≈ 0.722 nM)		
COc1cccc2c1C(=O)c1c(O)c3c(c(O)c1C2=O)C[C@@](O)(C(=O)CO)C[C@@H]3O[C@H]1C[C@H](N)[C@H](O)[C@H](C)O1 [DOX, doxorubicin]		>333 and >416	100,000 ng/mL and >100,000 ng/mL			340 ± 100 ng/mL (≈ 626 nM)	300 ± 170 ng/mL and 240 ± 50 ng/mL	>294	>100,000 ng/mL
COc1cccc2c1C(=O)c1c(O)c3c(c(O)c1C2=O)C[C@@](O)(C(C)=O)C[C@@H]3O[C@H]1C[C@H](N)[C@H](O)[C@H](C)O1 [DNR, daunorubicin]						220 ± 10 ng/mL (≈ 417 nM)		45	10,000 ± 0 ng/mL
